Test results from ChEMBL document CHEMBL4507319 (2021).

How the values were obtained:
[1] = molecular target: 5'-AMP-activated protein kinase catalytic subunit alpha-1 (Homo sapiens, UniProt Q13131); details: Compound concentration 1.0 uM
[2] = molecular target: Serine/threonine-protein kinase NIM1 (Homo sapiens) (UniProt Q8IY84); test: NIM1(h) Eurofins kinase panel; details: Compound concentration 1.0 uM
[3] = molecular target: Ephrin type-A receptor 5 (Homo sapiens) (UniProt P54756); test: EphA5(h) Eurofins kinase panel; details: Compound concentration 1.0 uM
Chain of Ephrin type-A receptor 5 (Homo sapiens) (P54756 whole entry): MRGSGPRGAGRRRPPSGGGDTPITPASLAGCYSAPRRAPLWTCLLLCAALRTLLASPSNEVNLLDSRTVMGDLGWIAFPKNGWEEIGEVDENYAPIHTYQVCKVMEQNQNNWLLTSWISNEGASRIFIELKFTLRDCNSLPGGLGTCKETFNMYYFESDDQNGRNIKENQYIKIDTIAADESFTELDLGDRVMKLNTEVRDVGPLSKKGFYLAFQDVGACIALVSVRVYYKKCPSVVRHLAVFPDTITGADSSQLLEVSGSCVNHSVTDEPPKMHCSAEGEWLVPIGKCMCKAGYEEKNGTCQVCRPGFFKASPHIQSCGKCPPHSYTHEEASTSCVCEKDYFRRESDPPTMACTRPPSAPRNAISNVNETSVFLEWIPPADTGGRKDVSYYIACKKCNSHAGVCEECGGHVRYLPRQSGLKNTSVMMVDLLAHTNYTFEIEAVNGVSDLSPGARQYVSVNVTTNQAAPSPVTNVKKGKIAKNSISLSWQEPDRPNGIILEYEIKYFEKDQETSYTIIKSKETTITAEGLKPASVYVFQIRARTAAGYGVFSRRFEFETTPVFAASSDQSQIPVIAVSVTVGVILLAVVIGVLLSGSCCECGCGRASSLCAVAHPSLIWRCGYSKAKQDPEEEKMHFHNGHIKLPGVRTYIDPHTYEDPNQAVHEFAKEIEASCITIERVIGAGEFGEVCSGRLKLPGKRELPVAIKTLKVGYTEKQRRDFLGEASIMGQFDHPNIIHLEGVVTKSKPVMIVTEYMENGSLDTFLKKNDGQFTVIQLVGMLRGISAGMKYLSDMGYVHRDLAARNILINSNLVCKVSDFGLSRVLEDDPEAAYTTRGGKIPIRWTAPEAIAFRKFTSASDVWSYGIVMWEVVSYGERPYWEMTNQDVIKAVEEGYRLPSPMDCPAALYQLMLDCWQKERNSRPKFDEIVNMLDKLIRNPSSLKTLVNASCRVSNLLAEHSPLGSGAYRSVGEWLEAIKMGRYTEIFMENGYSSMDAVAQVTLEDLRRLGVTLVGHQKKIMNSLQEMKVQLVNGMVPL

[4] = molecular target: Eukaryotic elongation factor 2 kinase (Homo sapiens) (UniProt O00418); test: eEF-2K(h) Eurofins kinase panel; details: Compound concentration 1.0 uM
Chain of Eukaryotic elongation factor 2 kinase (Homo sapiens) (O00418 whole entry): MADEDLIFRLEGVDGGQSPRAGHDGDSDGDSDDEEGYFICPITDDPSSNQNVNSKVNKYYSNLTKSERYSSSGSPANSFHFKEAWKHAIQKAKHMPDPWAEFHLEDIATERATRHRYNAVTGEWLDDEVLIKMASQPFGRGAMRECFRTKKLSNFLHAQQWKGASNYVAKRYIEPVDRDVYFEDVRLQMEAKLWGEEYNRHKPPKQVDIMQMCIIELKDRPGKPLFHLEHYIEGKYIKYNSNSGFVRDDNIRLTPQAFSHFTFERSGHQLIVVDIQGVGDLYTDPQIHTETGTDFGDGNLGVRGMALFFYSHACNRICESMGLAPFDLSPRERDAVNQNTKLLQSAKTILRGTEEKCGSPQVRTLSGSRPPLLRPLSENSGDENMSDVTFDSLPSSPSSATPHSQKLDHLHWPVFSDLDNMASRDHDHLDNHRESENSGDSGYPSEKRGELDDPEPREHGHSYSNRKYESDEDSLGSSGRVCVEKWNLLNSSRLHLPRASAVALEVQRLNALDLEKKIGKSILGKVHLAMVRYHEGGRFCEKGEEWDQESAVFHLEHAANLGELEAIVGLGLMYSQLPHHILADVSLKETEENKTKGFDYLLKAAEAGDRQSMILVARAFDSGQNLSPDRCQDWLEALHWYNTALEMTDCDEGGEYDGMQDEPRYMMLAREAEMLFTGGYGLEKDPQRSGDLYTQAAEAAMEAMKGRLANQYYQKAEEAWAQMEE

[5] = molecular target: Serine/threonine-protein kinase PLK1 (Homo sapiens) (UniProt P53350); test: Plk1(h) Eurofins kinase panel; details: Compound concentration 1.0 uM
Chain of Serine/threonine-protein kinase PLK1 (Homo sapiens) (P53350 whole entry): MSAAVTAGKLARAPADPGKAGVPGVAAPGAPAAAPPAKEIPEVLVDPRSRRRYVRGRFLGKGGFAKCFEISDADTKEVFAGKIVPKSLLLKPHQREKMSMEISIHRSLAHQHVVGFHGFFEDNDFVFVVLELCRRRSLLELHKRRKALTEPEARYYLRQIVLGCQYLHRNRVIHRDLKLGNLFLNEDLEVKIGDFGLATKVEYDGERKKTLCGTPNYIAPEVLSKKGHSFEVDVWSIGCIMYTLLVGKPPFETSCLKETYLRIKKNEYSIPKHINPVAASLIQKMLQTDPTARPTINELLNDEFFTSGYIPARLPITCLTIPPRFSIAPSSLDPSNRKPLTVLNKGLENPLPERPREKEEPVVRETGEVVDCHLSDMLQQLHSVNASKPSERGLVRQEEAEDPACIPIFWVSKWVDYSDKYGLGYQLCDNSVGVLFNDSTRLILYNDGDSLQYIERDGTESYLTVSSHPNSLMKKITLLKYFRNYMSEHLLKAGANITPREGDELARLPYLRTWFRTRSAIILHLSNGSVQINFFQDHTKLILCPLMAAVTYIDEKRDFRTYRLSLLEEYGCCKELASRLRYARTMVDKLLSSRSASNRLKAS

[6] = molecular target: T1, Cytoplasmic tyrosine-protein kinase BMX (Homo sapiens) (UniProt P51813); test: Bmx(h) Eurofins kinase panel; details: Compound concentration 1.0 uM
T1 sequence (whole entry): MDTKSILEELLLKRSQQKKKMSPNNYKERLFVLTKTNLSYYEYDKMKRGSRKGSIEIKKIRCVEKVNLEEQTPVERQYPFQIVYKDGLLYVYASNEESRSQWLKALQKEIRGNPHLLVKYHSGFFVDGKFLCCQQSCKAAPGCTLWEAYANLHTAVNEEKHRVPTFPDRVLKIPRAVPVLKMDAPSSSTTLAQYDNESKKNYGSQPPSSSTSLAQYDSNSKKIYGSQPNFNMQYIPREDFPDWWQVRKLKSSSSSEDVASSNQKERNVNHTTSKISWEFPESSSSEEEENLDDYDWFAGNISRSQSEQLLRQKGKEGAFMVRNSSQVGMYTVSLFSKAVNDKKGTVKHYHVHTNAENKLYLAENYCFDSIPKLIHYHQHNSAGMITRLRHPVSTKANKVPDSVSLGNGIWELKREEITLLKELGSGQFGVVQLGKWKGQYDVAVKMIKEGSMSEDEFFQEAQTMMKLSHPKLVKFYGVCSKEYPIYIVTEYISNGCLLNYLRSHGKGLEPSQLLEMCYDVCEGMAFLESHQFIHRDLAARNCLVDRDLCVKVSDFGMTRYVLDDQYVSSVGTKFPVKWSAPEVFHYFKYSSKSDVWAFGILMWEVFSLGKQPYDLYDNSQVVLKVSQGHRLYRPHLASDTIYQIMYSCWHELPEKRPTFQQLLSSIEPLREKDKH

Rec1 = test: REC-1 cell line Proliferation assay; assay type: functional, Homo sapiens; details: time 3 day
[7] = molecular target: Casein kinase I isoform gamma-3 (Homo sapiens) (UniProt Q9Y6M4); test: CK1gamma3(h) Eurofins kinase panel; details: Compound concentration 1.0 uM
Chain of Casein kinase I isoform gamma-3 (Homo sapiens) (Q9Y6M4 whole entry, looked up, canonical isoform): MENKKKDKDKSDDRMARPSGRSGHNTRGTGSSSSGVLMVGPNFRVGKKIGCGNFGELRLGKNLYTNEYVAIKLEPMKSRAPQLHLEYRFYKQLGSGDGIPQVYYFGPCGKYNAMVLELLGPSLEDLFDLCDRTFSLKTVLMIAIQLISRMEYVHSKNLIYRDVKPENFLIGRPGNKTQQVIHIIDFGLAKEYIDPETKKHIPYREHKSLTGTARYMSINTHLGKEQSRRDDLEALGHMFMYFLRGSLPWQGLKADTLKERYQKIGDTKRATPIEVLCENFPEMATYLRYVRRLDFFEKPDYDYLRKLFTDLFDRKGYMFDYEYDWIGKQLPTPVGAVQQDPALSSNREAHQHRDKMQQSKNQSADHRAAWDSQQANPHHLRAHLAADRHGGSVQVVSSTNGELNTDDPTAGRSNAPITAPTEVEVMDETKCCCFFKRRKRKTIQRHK

[8] = molecular target: Tyrosine-protein kinase BTK (Homo sapiens) (UniProt Q06187); test: BTK(h) Eurofins kinase panel; details: Compound concentration 1.0 uM
[9] = molecular target: T2, Serine/threonine-protein kinase ULK2 (Homo sapiens) (UniProt Q8IYT8); test: ULK2(h) Eurofins kinase panel; details: Compound concentration 1.0 uM
T2 sequence (whole entry): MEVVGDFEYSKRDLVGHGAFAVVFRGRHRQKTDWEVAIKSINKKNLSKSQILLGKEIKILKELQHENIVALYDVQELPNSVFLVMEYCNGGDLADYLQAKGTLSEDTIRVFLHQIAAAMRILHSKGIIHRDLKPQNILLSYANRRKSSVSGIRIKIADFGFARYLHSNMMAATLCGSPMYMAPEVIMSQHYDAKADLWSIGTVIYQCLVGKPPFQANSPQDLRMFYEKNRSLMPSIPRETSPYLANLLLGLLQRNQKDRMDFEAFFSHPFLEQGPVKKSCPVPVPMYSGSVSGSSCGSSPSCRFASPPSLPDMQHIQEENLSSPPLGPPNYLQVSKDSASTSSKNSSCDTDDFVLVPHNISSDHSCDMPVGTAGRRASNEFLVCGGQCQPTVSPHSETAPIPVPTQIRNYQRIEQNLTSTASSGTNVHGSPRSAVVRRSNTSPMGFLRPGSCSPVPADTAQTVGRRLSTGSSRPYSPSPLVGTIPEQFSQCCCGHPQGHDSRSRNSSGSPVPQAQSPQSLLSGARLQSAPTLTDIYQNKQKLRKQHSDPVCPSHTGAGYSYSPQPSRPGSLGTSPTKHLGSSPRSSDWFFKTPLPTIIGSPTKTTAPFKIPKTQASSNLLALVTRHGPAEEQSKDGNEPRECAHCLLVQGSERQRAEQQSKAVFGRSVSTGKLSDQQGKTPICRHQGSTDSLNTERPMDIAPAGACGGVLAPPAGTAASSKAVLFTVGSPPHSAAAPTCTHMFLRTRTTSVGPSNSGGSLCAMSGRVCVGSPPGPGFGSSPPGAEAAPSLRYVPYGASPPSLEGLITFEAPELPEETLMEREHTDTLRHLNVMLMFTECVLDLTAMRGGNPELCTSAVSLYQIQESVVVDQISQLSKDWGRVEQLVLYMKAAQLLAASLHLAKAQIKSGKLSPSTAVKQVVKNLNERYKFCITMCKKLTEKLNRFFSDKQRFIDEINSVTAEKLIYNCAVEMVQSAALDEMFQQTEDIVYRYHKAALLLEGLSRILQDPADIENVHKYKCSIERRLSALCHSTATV

[10] = molecular target: T3, Serine/threonine-protein kinase 3 (Homo sapiens) (UniProt Q13188); test: MST2(h) Eurofins kinase panel; details: Compound concentration 1.0 uM
T3 sequence (whole entry): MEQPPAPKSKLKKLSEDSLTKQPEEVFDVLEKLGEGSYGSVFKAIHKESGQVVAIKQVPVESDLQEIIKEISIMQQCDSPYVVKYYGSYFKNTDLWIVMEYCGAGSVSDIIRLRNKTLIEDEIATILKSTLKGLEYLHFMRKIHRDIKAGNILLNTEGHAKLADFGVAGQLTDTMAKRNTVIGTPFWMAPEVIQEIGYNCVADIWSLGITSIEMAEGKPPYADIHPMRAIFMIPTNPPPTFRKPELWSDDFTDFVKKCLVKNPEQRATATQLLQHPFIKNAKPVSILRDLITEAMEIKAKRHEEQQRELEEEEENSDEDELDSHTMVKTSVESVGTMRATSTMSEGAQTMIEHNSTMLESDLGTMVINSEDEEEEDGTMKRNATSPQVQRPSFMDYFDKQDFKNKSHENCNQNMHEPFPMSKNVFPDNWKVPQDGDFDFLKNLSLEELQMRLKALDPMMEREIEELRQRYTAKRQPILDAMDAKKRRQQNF

[11] = molecular target: Interleukin-1 receptor-associated kinase 1 (Homo sapiens) (UniProt P51617); test: IRAK1(h) Eurofins kinase panel; details: Compound concentration 1.0 uM
Chain of Interleukin-1 receptor-associated kinase 1 (Homo sapiens) (P51617 whole entry, looked up): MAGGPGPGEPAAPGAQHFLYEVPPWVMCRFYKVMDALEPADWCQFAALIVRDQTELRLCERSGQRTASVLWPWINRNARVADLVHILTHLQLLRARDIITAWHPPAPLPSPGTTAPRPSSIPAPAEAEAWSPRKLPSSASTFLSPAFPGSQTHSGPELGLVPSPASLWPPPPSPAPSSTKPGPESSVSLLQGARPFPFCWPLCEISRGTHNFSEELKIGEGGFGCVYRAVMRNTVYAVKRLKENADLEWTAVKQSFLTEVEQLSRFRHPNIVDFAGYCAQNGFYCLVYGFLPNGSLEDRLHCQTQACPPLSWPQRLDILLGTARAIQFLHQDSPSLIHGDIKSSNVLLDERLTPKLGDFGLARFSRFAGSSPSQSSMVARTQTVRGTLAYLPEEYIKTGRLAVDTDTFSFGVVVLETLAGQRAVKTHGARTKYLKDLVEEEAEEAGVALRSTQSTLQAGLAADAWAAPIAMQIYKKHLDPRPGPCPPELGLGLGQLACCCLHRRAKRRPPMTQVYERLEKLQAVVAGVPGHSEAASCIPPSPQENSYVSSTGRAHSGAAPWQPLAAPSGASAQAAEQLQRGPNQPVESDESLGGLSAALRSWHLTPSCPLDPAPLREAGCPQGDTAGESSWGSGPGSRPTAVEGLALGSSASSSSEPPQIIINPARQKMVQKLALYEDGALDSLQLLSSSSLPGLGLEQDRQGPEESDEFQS

Chain of 5'-AMP-activated protein kinase catalytic subunit alpha-1 (Q13131 whole entry, looked up): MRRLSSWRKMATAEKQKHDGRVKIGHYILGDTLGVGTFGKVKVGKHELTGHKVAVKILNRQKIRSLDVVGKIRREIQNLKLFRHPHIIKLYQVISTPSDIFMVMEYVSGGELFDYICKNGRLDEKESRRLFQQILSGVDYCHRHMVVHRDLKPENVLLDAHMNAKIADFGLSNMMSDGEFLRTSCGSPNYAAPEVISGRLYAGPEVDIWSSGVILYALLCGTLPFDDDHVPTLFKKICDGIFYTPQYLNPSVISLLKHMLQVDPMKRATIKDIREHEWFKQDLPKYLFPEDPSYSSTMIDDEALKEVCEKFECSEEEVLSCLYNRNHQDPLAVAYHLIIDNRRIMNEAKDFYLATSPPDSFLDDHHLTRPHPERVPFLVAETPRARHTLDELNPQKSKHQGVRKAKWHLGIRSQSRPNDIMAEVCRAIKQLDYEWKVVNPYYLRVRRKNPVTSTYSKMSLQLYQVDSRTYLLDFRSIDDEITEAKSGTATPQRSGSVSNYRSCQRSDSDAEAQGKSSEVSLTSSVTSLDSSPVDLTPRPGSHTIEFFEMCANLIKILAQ
Chain of Serine/threonine-protein kinase NIM1 (Homo sapiens) (Q8IY84 whole entry): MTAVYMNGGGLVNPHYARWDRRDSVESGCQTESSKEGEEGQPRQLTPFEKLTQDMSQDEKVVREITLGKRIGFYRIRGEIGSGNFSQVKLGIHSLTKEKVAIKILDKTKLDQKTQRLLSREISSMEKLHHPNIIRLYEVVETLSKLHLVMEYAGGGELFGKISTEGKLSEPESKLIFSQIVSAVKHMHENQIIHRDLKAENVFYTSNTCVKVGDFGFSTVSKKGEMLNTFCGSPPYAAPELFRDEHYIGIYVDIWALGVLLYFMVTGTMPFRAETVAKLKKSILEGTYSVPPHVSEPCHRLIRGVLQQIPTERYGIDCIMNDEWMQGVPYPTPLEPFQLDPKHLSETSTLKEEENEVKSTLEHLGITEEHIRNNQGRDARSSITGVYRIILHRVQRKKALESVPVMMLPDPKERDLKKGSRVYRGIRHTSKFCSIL

CCc1ccccc1C(=O)Nc1n[nH]c2c(C)c(F)c(C3C(C#N)=C(C)N(C)C(C)=C3C#N)cc12 [BAY-3827]
3.3 µM: Cell Proliferation IC50 (Rec1)
inactive: % residual kinase activity [1] 1% | % residual kinase activity [2] 93% | % residual kinase activity [3] 89% | % residual kinase activity [4] 141% | % residual kinase activity [5] 102% | % residual kinase activity [6] 113% | % residual kinase activity [7] 105% | % residual kinase activity [8] 96% | % residual kinase activity [9] 84% | % residual kinase activity [10] 47% | % residual kinase activity [11] 99%
